One data set concerns H1755 cells. The experiment in a line: Cellular phospho-ERK inhibition assay in H1755 cells. Format: cell-based. To be noted: Homo sapiens, NCI-H1755, 2 hours treatment, read-out: H1755 Cell IC50. In a few lines: (§1)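 In Cell Western detection of phospho-ERK1/2 (Thr202/Tyr204) over GAPDH after 2 h compound exposure (66 pM to 10 μM, 9 points, 0.25% DMSO) of A375 cells in DMEM or H1755 cells in RPMI, both with 10% FBS. Percent of control set by DMSO and 10 μM binimetinib; 4-parameter IC50.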

The target in the next data set is BCRP (Homo sapiens (Human), UniProt Q9UNQ0). Put plainly: BCRP MDCKII permeability assay: efflux ratio. Format: in vitro ADME. The following applies: dog.
Data set [1] can be described thus: MDR1 LLC-PK1 and BCRP MDCKII permeability assay: permeability coefficient (Papp). Type of data set: in vitro ADME. From the text: (§2) Final organic concentration in the assay was 1%.
The target in the next data set is P-gp (MDR1) (Homo sapiens (Human), UniProt P08183). The experiment in a line: MDR1 LLC-PK1 permeability assay: efflux ratio. Type of data set: in vitro ADME. To be noted: pig.
Excerpt: as §2

The next data set deals with A375 cells. Put plainly: Cellular phospho-ERK inhibition assay in A375 cells. The following applies: Homo sapiens, A-375, A375 cells (head prints A357), 2 hours treatment, read-out: A357 cell IC50. Type of data set: cell-based. In short, it runs like this: as §1
Data set [2] has as its target full-length FLAG-tagged B-Raf(V600E) (Homo sapiens (Human), UniProt P15056, V600E). The experiment in a line: BRAF V600E enzyme assay (TR-FRET competitive displacement). Format: binding. In a few lines: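 TR-FRET tracer competition: compound (top dose 10 μM, 3-fold, 11 points) incubated 60 min at ambient temperature with FLAG-tagged full-length B-Raf(V600E) (5 nM), Eu anti-FLAG cryptate (0.5 nM) and tracer (50 nM), pH 7.4 HEPES/MgCl2 buffer. 665/615 ratio converted to percent of control; IC50 where fitted curve crosses 50 POC.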

Setting [3] is: averaged IC50, TR-FRET tracer displacement, 60 min.

We go through 15 compounds from US12303509B2, “Compounds for the treatment of BRAF-associated diseases and disorders” (Pfizer Inc., priority 2020, dated 2025).

Molecules are shown by their SMILES. Counter-ions that a name gives are not always drawn. Like-named read-outs stand apart in the source and are kept apart here.

Sequence of P-gp (MDR1) (P08183 whole entry, species assumed): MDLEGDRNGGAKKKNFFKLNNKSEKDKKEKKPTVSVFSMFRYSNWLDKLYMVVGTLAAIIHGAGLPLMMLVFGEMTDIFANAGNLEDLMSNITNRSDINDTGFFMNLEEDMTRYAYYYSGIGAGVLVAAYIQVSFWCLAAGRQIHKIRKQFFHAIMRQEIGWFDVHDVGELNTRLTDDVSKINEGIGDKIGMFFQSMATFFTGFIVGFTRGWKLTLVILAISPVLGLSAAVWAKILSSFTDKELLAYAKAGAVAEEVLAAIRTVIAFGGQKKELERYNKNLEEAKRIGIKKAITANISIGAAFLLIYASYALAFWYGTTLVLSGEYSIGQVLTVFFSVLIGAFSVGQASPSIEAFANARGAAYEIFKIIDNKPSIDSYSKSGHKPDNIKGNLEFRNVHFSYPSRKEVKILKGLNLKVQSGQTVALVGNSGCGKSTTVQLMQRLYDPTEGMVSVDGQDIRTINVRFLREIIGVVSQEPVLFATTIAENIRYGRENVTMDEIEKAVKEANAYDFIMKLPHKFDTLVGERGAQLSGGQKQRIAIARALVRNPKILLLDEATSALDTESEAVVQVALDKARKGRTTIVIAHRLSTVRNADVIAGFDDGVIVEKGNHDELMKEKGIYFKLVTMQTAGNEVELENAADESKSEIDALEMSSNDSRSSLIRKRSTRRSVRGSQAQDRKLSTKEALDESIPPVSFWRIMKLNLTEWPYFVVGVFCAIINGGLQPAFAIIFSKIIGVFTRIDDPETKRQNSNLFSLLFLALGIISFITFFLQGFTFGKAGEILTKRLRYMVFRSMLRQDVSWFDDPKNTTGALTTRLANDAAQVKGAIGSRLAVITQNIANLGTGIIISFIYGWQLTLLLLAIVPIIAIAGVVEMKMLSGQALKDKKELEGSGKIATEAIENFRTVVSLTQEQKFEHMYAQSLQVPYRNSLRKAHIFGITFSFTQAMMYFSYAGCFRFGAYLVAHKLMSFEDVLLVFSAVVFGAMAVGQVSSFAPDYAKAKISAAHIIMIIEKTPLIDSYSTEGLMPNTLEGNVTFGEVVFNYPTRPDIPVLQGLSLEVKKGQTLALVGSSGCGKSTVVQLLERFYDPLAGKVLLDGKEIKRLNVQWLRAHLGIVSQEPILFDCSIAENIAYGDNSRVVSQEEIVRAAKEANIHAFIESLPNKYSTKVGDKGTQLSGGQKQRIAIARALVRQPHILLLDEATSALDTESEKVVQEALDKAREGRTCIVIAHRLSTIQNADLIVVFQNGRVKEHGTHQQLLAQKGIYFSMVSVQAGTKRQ
Sequence of full-length FLAG-tagged B-Raf(V600E) (P15056 whole entry V600E): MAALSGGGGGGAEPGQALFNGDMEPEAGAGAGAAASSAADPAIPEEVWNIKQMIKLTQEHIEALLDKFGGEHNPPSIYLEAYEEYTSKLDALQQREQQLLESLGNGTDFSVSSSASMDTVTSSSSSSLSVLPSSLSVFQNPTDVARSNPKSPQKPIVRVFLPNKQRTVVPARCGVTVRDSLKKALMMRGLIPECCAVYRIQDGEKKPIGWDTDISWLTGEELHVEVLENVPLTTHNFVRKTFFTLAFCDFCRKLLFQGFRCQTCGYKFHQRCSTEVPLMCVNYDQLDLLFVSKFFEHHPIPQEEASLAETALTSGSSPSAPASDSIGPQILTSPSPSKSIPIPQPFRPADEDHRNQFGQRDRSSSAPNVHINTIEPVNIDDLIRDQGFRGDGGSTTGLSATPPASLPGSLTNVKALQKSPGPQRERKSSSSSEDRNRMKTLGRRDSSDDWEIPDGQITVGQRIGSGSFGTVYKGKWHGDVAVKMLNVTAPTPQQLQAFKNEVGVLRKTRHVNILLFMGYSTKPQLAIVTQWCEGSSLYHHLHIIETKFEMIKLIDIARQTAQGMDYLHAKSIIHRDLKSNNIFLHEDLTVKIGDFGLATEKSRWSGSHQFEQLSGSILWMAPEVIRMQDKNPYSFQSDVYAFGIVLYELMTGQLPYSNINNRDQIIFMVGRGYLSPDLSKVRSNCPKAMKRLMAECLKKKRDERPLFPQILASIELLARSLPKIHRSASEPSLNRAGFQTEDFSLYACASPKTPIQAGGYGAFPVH
Sequence of BCRP (Q9UNQ0 whole entry): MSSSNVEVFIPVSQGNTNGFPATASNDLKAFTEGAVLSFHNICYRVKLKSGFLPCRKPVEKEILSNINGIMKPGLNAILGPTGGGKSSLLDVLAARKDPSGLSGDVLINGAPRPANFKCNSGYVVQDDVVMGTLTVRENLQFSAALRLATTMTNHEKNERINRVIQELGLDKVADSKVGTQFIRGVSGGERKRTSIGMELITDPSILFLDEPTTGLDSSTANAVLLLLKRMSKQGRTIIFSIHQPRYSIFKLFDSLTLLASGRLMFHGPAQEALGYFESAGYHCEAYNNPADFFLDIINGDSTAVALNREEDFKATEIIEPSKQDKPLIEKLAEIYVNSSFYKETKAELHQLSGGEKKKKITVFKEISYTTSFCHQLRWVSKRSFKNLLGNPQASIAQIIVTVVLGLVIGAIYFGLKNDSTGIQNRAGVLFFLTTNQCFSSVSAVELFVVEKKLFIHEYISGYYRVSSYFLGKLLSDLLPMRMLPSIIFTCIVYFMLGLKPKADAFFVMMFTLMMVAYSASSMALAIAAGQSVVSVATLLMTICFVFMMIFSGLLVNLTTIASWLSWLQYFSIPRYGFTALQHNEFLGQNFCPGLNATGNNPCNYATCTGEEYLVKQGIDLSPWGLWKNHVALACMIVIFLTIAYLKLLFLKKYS

In general, IC50 refers to the concentration that inhibits the measured activity by half. The term efflux ratio denotes the permeability from basolateral to apical divided by that in the opposite direction, in the common usage. For orientation: Papp means a coefficient for how fast a substance crosses the barrier. A higher Papp goes with fast passage. With `CO[C@@H]1CCN(S(=O)(=O)Nc2cc(F)c(F)c(Nc3ccc4ncn(C)c(=O)c4c3Cl)c2F)C1` [Example 34, (R)-N-(3-((5-chloro-3-methyl-4-oxo-3,4-dihydroquinazolin-6-yl)amino)-2,4,5-trifluorophenyl)-3-methoxypyrrolidine-1-sulfonamide], the results for the IC50 (in the data set with H1755 cells; in the data set on A375 cells; in data set [2] (setting [3])) were 54 nM, 4 nM and 4 nM, respectively. Also, the efflux ratio at 2 h, 1 µM on BCRP was found to be 2.6; at P-gp (MDR1), 2.9. Besides, the Papp at 2 h, 1 µM in data set [1] came out at 30 ×10⁻⁶ cm/s.
As to `Cc1c(Nc2c(F)c(F)cc(NS(=O)(=O)N3CC[C@@H](F)C3)c2Cl)ccc2ncn(C)c(=O)c12` [Example 35, (R)-N-(2-chloro-3-((3,5-dimethyl-4-oxo-3,4-dihydroquinazolin-6-yl)amino)-4,5-difluorophenyl)-3-fluoropyrrolidine-1-sulfonamide], the IC50 turned out to be 163 nM in the data set with H1755 cells, 21 nM with A375 cells and 2 nM in data set [2] (setting [3]). Moreover, the figures for the efflux ratio at 2 h, 1 µM at BCRP and at P-gp (MDR1) were 2.1 and 1.5, respectively. In data set [1], this compound displayed a Papp at 2 h, 1 µM of 31 ×10⁻⁶ cm/s.
Turning to `Cn1cnc2ccc(Nc3c(F)c(F)cc(NS(=O)(=O)N4CC[C@@H](F)C4)c3F)c(Cl)c2c1=O` [Example 36, (R)-N-(3-((5-chloro-3-methyl-4-oxo-3,4-dihydroquinazolin-6-yl)amino)-2,4,5-trifluorophenyl)-3-fluoropyrrolidine-1-sulfonamide trifluoroacetate], the IC50 came to 61 nM in the data set with H1755 cells, 5 nM in the data set on A375 cells and 1 nM in data set [2] (setting [3]). The efflux ratio at 2 h, 1 µM on BCRP is 9.9; on P-gp (MDR1) it was 2.9. In data set [1], the Papp at 2 h, 1 µM was determined as 25 ×10⁻⁶ cm/s.
Take `Cn1cnc2ccc(Oc3c(F)ccc(NS(=O)(=O)N4CCCC4)c3Cl)c(Cl)c2c1=O` [Example 39, N-(2-chloro-3-((5-chloro-3-methyl-4-oxo-3,4-dihydroquinazolin-6-yl)oxy)-4-fluorophenyl)pyrrolidine-1-sulfonamide]: the results for the IC50 (with H1755 cells; with A375 cells; in data set [2] (setting [3])) were 55 nM, 8 nM and 3 nM, respectively. The efflux ratio at 2 h, 1 µM at BCRP was 0.9; at P-gp (MDR1), 1.3. The compound also yielded a Papp at 2 h, 1 µM in data set [1] of 23 ×10⁻⁶ cm/s.
With `O=c1c2c(F)c(Nc3c(F)ccc(NS(=O)(=O)N4CCCC4)c3Cl)ccc2ncn1CF` [Example 42, N-(2-chloro-4-fluoro-3-((5-fluoro-3-(fluoromethyl)-4-oxo-3,4-dihydroquinazolin-6-yl)amino)phenyl)pyrrolidine-1-sulfonamide trifluoroacetate], the values for the IC50 (with H1755 cells; in the data set on A375 cells; in data set [2] (setting [3])) were 42 nM, 4 nM and 2 nM, respectively. Further, the efflux ratio at 2 h, 1 µM at BCRP was 2.4; at P-gp (MDR1), 1.8. The Papp at 2 h, 1 µM in data set [1] was 27 ×10⁻⁶ cm/s.
As to `Cn1cnc2ccc(Nc3c(F)c(F)cc(NS(=O)(=O)N4CCCC4)c3F)c(Cl)c2c1=O` [Example 43, N-(3-((5-chloro-3-methyl-4-oxo-3,4-dihydroquinazolin-6-yl)amino)-2,4,5-trifluorophenyl)pyrrolidine-1-sulfonamide trifluoroacetate], the IC50 in the data set on H1755 cells is 45 nM; in the data set with A375 cells it was 4 nM; in data set [2] (setting [3]) it was 1 nM. Further, the efflux ratio at 2 h, 1 µM on BCRP came to 1.9; on P-gp (MDR1) it was 1.8. The Papp at 2 h, 1 µM in data set [1] came out at 32 ×10⁻⁶ cm/s.
As to `CCN(C)S(=O)(=O)Nc1cc(F)c(F)c(Nc2ccc3ncn(C)c(=O)c3c2F)c1Cl` [Example 45, N-(2-chloro-4,5-difluoro-3-((5-fluoro-3-methyl-4-oxo-3,4-dihydroquinazolin-6-yl)phenyl)-(N-ethyl-N-methyl)-sulfamide trifluoroacetate], the IC50 in the data set with H1755 cells was 102 nM; in the data set on A375 cells, 4 nM; in data set [2] (setting [3]), 4 nM. The efflux ratio at 2 h, 1 µM on BCRP and at P-gp (MDR1) was 1.6 each time. The compound also registered a Papp at 2 h, 1 µM in data set [1] of 40 ×10⁻⁶ cm/s.
As to `Cn1cnc2ccc(Nc3c(F)c(F)cc(NS(=O)(=O)N4CC[C@@H](F)C4)c3Cl)c(F)c2c1=O` [Example 46, (R)-N-(2-chloro-4,5-difluoro-3-((5-fluoro-3-methyl-4-oxo-3,4-dihydroquinazolin-6-yl)amino)phenyl)-3-fluoropyrrolidine-1-sulfonamide trifluoroacetate], the IC50 in the data set on H1755 cells worked out at 103 nM; with A375 cells, 2 nM; in data set [2] (setting [3]) it was 1 nM. Further, the efflux ratio at 2 h, 1 µM on BCRP amounted to 6.3; on P-gp (MDR1), 2.8. The compound further yielded a Papp at 2 h, 1 µM in data set [1] of 30 ×10⁻⁶ cm/s.
On to `CO[C@@H]1CCN(S(=O)(=O)Nc2cc(F)c(F)c(Nc3ccc4ncn(C)c(=O)c4c3F)c2Cl)C1` [Example 47, (R)-N-(2-chloro-4,5-difluoro-3-((5-fluoro-3-methyl-4-oxo-3,4-dihydroquinazolin-6-yl)amino)phenyl)-3-methoxypyrrolidine-1-sulfonamide trifluoroacetate], for which the IC50 in the data set with H1755 cells worked out at 23 nM; in the data set on A375 cells it was 2 nM; in data set [2] (setting [3]) it was 2 nM. Besides, the efflux ratio at 2 h, 1 µM on BCRP came to 2.5; on P-gp (MDR1), 3.6. Also, the Papp at 2 h, 1 µM in data set [1] was 26 ×10⁻⁶ cm/s.
For `Cn1cnc2ccc(Oc3c(F)ccc(NS(=O)(=O)N4CC5CC4C5)c3Cl)c(F)c2c1=O` [Example 49, N-(2-chloro-4-fluoro-3-((5-fluoro-3-methyl-4-oxo-3,4-dihydroquinazolin-6-yl)oxy)phenyl)-2-azabicyclo[2.1.1]hexane-2-sulfonamide], the IC50 in the data set with H1755 cells was determined as 70 nM; in the data set with A375 cells it was 3 nM; in data set [2] (setting [3]), 2 nM. Also, the efflux ratio at 2 h, 1 µM came out at 1 at BCRP and 1.4 on P-gp (MDR1). The compound also registered a Papp at 2 h, 1 µM in data set [1] of 30 ×10⁻⁶ cm/s.
Take `Cn1cnc2ccc(Nc3c(F)ccc(NS(=O)(=O)N4CCCC4)c3Cl)c(C#N)c2c1=O` [Example 50, N-(2-chloro-3-((5-cyano-3-methyl-4-oxo-3,4-dihydroquinazolin-6-yl)amino)-4-fluorophenyl)pyrrolidine-1-sulfonamide trifluoroacetate]: the values for the IC50 (in the data set on H1755 cells; with A375 cells; in data set [2] (setting [3])) were 20 nM, 1 nM and 2 nM, respectively. Besides, the efflux ratio at 2 h, 1 µM at BCRP is 6.3; at P-gp (MDR1), 5.3. The compound also showed a Papp at 2 h, 1 µM in data set [1] of 26 ×10⁻⁶ cm/s.
Turning to `[2H]C([2H])([2H])O[C@@H]1CCN(S(=O)(=O)Nc2ccc(F)c(Nc3ccc4ncn(C)c(=O)c4c3Cl)c2Cl)C1` [Example 53, (R)-N-(2-chloro-3-((5-chloro-3-methyl-4-oxo-3,4-dihydroquinazolin-6-yl)amino)-4-fluorophenyl)-3-(methoxy-d3)pyrrolidine-1-sulfonamide trifluoroacetate], the results for the IC50 (with H1755 cells; with A375 cells; in data set [2] (setting [3])) were 25 nM, 6 nM and 7 nM, respectively. For the same compound, the figures for the efflux ratio at 2 h, 1 µM on BCRP and at P-gp (MDR1) were 1.8 and 2, respectively. The Papp at 2 h, 1 µM in data set [1] is 30 ×10⁻⁶ cm/s.
With `[2H]C([2H])([2H])O[C@@H]1CCN(S(=O)(=O)Nc2ccc(F)c(Nc3ccc4ncn(C)c(=O)c4c3F)c2Cl)C1` [Example 54, (R)-N-(2-chloro-4-fluoro-3-((5-fluoro-3-methyl-4-oxo-3,4-dihydroquinazolin-6-yl)amino)phenyl)-3-(methoxy-d3)pyrrolidine-1-sulfonamide trifluoroacetate], the figures for the IC50 (in the data set on H1755 cells; with A375 cells; in data set [2] (setting [3])) were 33 nM, 4 nM and 17 nM, respectively. In addition, the efflux ratio at 2 h, 1 µM was 3 on BCRP and 3.6 at P-gp (MDR1). In data set [1], this compound gave a Papp at 2 h, 1 µM of 31 ×10⁻⁶ cm/s.
With `[2H]C([2H])([2H])O[C@@H]1CCN(S(=O)(=O)Nc2ccc(F)c(Nc3ccc4ncn(C)c(=O)c4c3C)c2Cl)C1` [Example 55, (R)-N-(2-chloro-3-((3,5-dimethyl-4-oxo-3,4-dihydroquinazolin-6-yl)amino)-4-fluorophenyl)-3-(methoxy-d3)pyrrolidine-1-sulfonamide trifluoroacetate], the figures for the IC50 (with H1755 cells; in the data set with A375 cells; in data set [2] (setting [3])) were 124 nM, 27 nM and 45 nM, respectively. Further, the efflux ratio at 2 h, 1 µM on BCRP turned out to be 1; at P-gp (MDR1), 1.5. This compound had a Papp at 2 h, 1 µM in data set [1] of 33 ×10⁻⁶ cm/s.
Regarding `Cc1c(Oc2c(F)ccc(NS(=O)(=O)N3CC[C@@H](OC(F)F)C3)c2Cl)ccc2ncn(C)c(=O)c12.O=C(O)C(F)(F)F` [Example 57, (R)-N-(2-chloro-3-((3,5-dimethyl-4-oxo-3,4-dihydroquinazolin-6-yl)oxy)-4-fluorophenyl)-3-(difluoromethoxy)pyrrolidine-1-sulfonamide trifluoroacetate], the IC50 in the data set on H1755 cells is 61 nM; in the data set with A375 cells it was 27 nM; in data set [2] it was 3 nM. Besides, the efflux ratio at 2 h, 1 µM on BCRP and at P-gp (MDR1) was 0.9 in each case. This compound showed a Papp at 2 h, 1 µM in data set [1] of 25 ×10⁻⁶ cm/s.
